Reference: ChEMBL document CHEMBL1143209, “Ohioensins F and G: protein tyrosine phosphatase 1B inhibitory benzonaphthoxanthenones from the Antarctic moss Polytrichastrum alpinum” (Bioorg Med Chem Lett, 2008)

What was measured:
[1] = target: T1, Tyrosine-protein phosphatase non-receptor type 1 (Homo sapiens, UniProt P18031); assay: Inhibition of human recombinant PTP1B
T1 sequence (P18031 whole entry): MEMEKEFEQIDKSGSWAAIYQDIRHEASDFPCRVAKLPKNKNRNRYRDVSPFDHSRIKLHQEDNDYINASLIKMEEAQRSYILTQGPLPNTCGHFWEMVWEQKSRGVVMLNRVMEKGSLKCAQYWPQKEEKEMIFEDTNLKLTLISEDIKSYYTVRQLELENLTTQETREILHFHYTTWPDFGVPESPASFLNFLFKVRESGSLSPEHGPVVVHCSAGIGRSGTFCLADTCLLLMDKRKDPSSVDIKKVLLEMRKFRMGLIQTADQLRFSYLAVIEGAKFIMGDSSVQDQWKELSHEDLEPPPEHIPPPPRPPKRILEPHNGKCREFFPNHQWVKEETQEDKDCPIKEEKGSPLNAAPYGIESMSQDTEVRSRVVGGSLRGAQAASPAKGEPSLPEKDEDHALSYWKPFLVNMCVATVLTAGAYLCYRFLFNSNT

[2] = target: T1, Tyrosine-protein phosphatase non-receptor type 1; assay: Inhibition of human recombinant PTP1B by Lineweaver-Burke plot

IC50 [1] [µM] | Ki [2] [µM] | SMILES
4.3 |  | O=C1C[C@@H]2c3ccccc3O[C@H]3c4cc(O)ccc4-c4c(O)cc(O)c1c4[C@H]23 [OHIOENSIN A]
7.6 |  | COc1cc(O)c2c3c1-c1c(O)cccc1[C@@H]1Oc4ccccc4[C@@H](CC2=O)[C@@H]31 [OHIOENSIN C]
3.5 | 1.5 | O=C1C[C@]2(O)c3ccccc3O[C@H]3c4cc(O)ccc4-c4c(O)cc(O)c1c4[C@@H]32 [OHIOENSIN F]
5.6 |  | O=C1c2c(O)cc(O)c3c2[C@@H]2[C@@H](c4ccccc4O[C@H]2c2cccc(O)c2-3)[C@H]1O [OHIOENSIN G]
